Literature values as cited in US11737988B2, “Anti-hypertensive and cholesterol-lowering fixed-dose combination and method of manufacture” (CardioPharma, Inc., priority 2019, dated 2023).

Conditions: cholesterol-lowering drugs (statins); known to those of skill in the art

Compound | bioavailability [%]
COCc1c(C(C)C)nc(C(C)C)c(/C=C/[C@@H](O)C[C@@H](O)CC(=O)O)c1-c1ccc(F)cc1 [cerivastatin] | 60
O=C(O)C[C@H](O)C[C@H](O)/C=C/c1c(C2CC2)nc2ccccc2c1-c1ccc(F)cc1 [pitvastatin] | 60
